Series [1] can be described thus: LogP (1-octanol/water partition coefficient) determined using HPLC. Format: physicochemical. The following applies: HPLC (OECD guideline), C18 column, methanol–water 75% (v/v), 40 °C, mean of triplicate. As to the method: Hydrophobicity is a key determinant of the activity and pharmacokinetics of biologically active compounds, and the octanol–water partition coefficient (P) and logarithm value (LogP) are widely used hydrophobicity parameters. The LogP values of the synthesized compounds were determined using HPLC [45, 46]. Table 1 summarizes the experimentally determined LogP values and calculated values. […] From the viewpoint of the phosphine structure, an increase in the number of carbon atoms increased hydrophobicity in a predictable manner.
The 1-octanol/water partition coefficient P was determined using HPLC based on the OECD Guideline for Testing Chemicals. A COSMOSIL Packed Column 5C18-MS-II (5 μm, 150 mm × 4.6 mm id, Nacalai Tesque, Inc., Kyoto, Japan) was fitted on an HPLC instrument (Multiwavelength Detector, MD-2010 Plus. JASCO, Tokyo, Japan) equipped with a pump (PU-2080, JASCO) and an oven (SSC-2120, Senshu Scientific Co., Ltd., Tokyo, Japan). The injection volume was 20 µL; the mobile phase was methanol–water 75% (v/v); and the flow rate was 1.0 mL/min in all cases. Compounds were detected by measuring the UV absorption at 240 nm. The temperature of the column was kept at 40.0 (± 0.1) °C during the measurement. The measurement was performed in triplicate, and the mean value was calculated. The dead time t0 was measured with thiourea as the unretained compound, and the capacity factor k was calculated using the equation logk = log (tr − t0/t0), where tr represents the retention time of the compound. A calibration graph was determined experimentally using reference compounds (4-methylphenol, 4-chlorophenol, 4-phenylphenol, diphenylether, fluoranthene, and dichlorodiphenyltrichloroethane) with known logP values. The LogP values of phosphine–boranes were calculated based on a calibration graph (LogP = 2.6269 logkw + 3.059, R^2 = 0.9915).

The target in series [2] is T1, PR ligand-binding domain (LBD) (Homo sapiens, UniProt P06401).
T1 construct: purchased Invitrogen A15905
T1 sequence (P06401 679-913 limits assumed): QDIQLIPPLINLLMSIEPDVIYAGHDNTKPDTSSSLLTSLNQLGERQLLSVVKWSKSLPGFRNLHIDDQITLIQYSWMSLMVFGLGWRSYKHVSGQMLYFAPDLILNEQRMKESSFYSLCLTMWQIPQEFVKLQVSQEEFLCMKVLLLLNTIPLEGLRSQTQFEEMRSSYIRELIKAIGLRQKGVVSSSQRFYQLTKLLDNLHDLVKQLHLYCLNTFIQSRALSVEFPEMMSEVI
Briefly: PR LBD competitive binding assay (fluorescence polarization, PolarScreen kit). As to conditions: fluorescence polarization competition, 100 nM to 32 μM, Figure 5. As to the method:
The PR agonistic and antagonistic activities of the synthesized phosphine–borane derivatives were evaluated using an alkaline phosphatase assay with the T47D human breast cancer cell line. […] The basal alkaline phosphatase activity was also not affected by the tested compounds alone. […] The PR antagonistic activities of the compounds were assessed in the presence of 1 nM of P4 (5). We also calculated the molecular volume of each compound to investigate the structure–activity relationship (SAR). Table 2 summarizes the PR antagonistic activity and calculated volumes of the synthesized compounds. […] We investigated the binding affinity of the compounds toward the PR ligand-binding domain (LBD) using a fluorescence polarization assay system. […] We also investigated the activity of compounds 28 and 34 toward the androgen receptor (AR) by means of cell-proliferation promoting/inhibitory activity toward androgen-dependent SC-3 cells. […].
PR binding affinity was assessed using a PolarScreen Progesterone Receptor Competitor Assay Kit, Green (Invitrogen, Waltham, MA, USA, A15905) based on the manufacturer’s instruction. […] The fluorescence polarization value (mP) was measured at 485 nm/535 nm (excitation/emission) on a DTX 880 Multimode Detector (Beckman Coulter).

For the next series, the target named is T2, androgen receptor (AR) (Mus musculus, UniProt P19091).
T2 construct: SC-3 cells were cultured in MEMα (Fujifilm Wako Co.) supplemented with 2 %; endogenous in cells; host or cells: SC-3
T2 sequence (P19091 1-899): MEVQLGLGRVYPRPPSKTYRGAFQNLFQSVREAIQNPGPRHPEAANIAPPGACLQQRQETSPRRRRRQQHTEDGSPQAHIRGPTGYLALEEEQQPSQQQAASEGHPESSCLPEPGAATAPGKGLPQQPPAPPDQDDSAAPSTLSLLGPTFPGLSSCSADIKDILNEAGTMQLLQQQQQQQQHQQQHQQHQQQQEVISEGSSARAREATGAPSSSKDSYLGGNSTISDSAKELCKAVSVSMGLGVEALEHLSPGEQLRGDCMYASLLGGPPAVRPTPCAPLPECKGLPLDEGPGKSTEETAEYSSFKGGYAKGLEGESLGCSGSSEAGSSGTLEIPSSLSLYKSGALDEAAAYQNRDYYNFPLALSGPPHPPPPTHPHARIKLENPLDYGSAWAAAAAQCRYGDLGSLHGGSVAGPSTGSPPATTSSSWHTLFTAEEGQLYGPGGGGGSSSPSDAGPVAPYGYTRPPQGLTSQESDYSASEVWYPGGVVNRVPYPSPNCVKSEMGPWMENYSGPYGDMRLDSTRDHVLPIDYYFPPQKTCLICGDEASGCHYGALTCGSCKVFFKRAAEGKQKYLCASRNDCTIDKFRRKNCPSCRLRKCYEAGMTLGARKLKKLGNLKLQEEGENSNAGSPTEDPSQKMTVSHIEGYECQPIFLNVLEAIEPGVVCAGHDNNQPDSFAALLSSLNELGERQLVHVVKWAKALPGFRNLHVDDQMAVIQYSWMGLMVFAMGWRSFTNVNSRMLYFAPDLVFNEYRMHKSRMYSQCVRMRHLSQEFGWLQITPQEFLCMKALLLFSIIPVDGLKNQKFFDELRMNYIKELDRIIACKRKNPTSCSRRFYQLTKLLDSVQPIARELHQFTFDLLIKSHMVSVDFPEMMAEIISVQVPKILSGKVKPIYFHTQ
Briefly: SC-3 cell proliferation assay, AR agonistic activity (compound alone). The following applies: for EC50: SC-3 cells, induction of cell proliferation by single treatment of the compound, 0.01 μM to 10 μM, read-out: EC50 (agonist); for effect on SC-3 cell growth in the absence of dihydrotestosterone (AR agonistic activity): androgen-dependent SC-3 cells. It counts as cell-based, murine.

Consider 2 compounds from paper PMC11013038, “Design, Synthesis, and Evaluation of B-(Trifluoromethyl)phenyl Phosphine–Borane Derivatives as Novel Progesterone Receptor Antagonists” (Molecules, 2024).

Molecules are shown by their SMILES.

In series [1], `C[P+](C)(C)[BH2-]c1ccc(C(F)(F)F)cc1` [Compound 28, B-4-(Trifluoromethyl)phenyl Trimethylphosphine–Borane] gave a chromatographic logP of 3.65. The “binding affinity toward PR LBD (in words)” value in series [2] is “did not show the affinity”. For the same compound, at androgen receptor (AR), the EC50 is more than 10 µM and the “effect on SC-3 cell growth in the absence of dihydrotestosterone (AR agonistic activity)” value was “did not affect cell growth”.

Take `FC(F)(F)c1ccc([BH2-][P+](C2CC2)(C2CC2)C2CC2)cc1` [Compound 34, B-4-(Trifluoromethyl)phenyl Tricyclopropylphosphine–Borane]: the chromatographic logP in series [1] came to 5.32. In series [2], the “binding affinity toward PR LBD (in words)” value was “exhibited significant affinity toward PR LBD”. Further, at androgen receptor (AR), the EC50 is more than 10 µM and the “effect on SC-3 cell growth in the absence of dihydrotestosterone (AR agonistic activity)” value was “did not affect cell growth”.
